Each structure is given as a SMILES string.

For data set [1], the system named is spontaneous IL-6 secretion. Briefly: Inhibition of spontaneous IL-6 secretion in human 3D airway cultures from asthmatic donors. As to conditions: 192 h, 8 days, 3 or 4 donors. The data set is classed as cell-based. On the procedure: EpiAirway tissue cultures were obtained from Mattek (AIR-100). Cells were derived from asthmatic donors that spontaneously secrete periostin, a matricellular protein associated with Th2 mediated asthma (eosinophilic), and interleukin-6 (IL-6), an inflammatory cytokine that plays a role in both Th2 and non-Th2 related asthma. In a cell culture insert, human derived tracheal/bronchial epithelial cells were grown and differentiated on a porous membrane support, allowing an air-liquid interface with warmed culture medium below the cells and a gaseous test atmosphere above. Tissues were cultured in maintenance media ([…]) in a 37° C., 5% CO2 humidified incubator. Four donors were tested. On Day 0, tissue cultures were treated with test compounds in liquid interface at 10 μM, 1 μM and/or 0.1 μM. Compounds were diluted in dimethyl sulfoxide (DMSO, Sigma) to a final concentration of 0.1%. DMSO at 0.1% was used as a vehicle control. Tissue cultures were maintained for 8 days. Media was replaced every 2 days with fresh media containing compounds. On Day 8, supernatants were collected for analysis. Supernatant samples were assayed for periostin and interleukin-6 (IL-6) using luminex analysis (EMD Millipore). Data is expressed as % Inhibition+/-standard deviation (±STDV). Percent inhibition was determined by compound inhibitory potency against spontaneous secretion of periostin and IL-6 compared to vehicle treated cells. Data is the average from 3 or 4 donors.

Data set [2] in a line: Lung and plasma drug concentration in the IL-13 pSTAT6 mouse model. The data set is classed as in vivo. As to conditions: lung to plasma ratio at 5 hours. On the procedure:
Adult Balb/c mice from Harlan were used in the assay. […] Animals were placed in lateral recumbency post dose and monitored for full recovery from anesthesia before being returned to their home cage. Four hours later, animals were once again briefly anesthetized and challenged with either vehicle or IL-13 (0.03 μg total dose delivered, 50 μL total volume) via oral aspiration before being monitored for recovery from anesthesia and returned to their home cage. One hour after vehicle or IL-13 administration, whole blood and lungs were collected for both pSTAT6 detection in lung homogenates using a Perkin Elmer AlphaLISA® SureFire® Ultra™ HV p-STAT6 (Tyr641) assay kit and for total drug concentration analysis in both lung and plasma. Blood samples were centrifuged (Eppendorf centrifuge, 5804R) for 4 minutes at approximately 12,000 rpm at 4° C. to collect plasma. […] Plasma and lung levels of test compound were determined by LC-MS analysis against analytical standards constructed into a standard curve in the test matrix. A lung to plasma ratio was determined as the ratio of the lung concentration in ng/g to the plasma concentration in ng/mL at 5 hours.

For data set [3], the system named is IFNγ induced CXCL10 secretion. The data set is described as follows: Inhibition of IFNγ induced CXCL10 in human 3D airway cultures. Type of data set: cell-based. As to conditions: 192 h, 8 days, 4 donors. As for the experimental part:
(§1) EpiAirway tissue cultures were obtained from Mattek (AIR-100). Cultures were derived from asthmatic donors. In a cell culture insert, human derived tracheal/bronchial epithelial cells were grown and differentiated on a porous membrane support, allowing an air-liquid interface with warmed culture medium below the cells and a gaseous test atmosphere above. Tissues were cultured in maintenance media ([…]) in a 37° C., 5% CO2 humidified incubator. Four donors were tested. On Day 0, tissue cultures were treated with test compounds in liquid interface at 10 μM, 1 μM and/or 0.1 μM. Compounds were diluted in dimethyl sulfoxide (DMSO, Sigma) to a final concentration of 0.1%. DMSO at 0.1% was used as a vehicle control. […] Tissue cultures were maintained for 8 days. Media was replaced every 2 days with fresh media containing compounds and IFNγ or IL-27. On Day 8, tissue cultures and supernatants were collected for analysis. Supernatant samples were assayed for CXCL10 (IP-10) and CXCL9 (MIG) using luminex analysis (EMD Millipore). Data is expressed as % Inhibition+/-standard deviation (±STDV). Percent inhibition was determined by compound inhibitory potency against IFNγ or IL-27 induced CXCL10 or CXCL9 secretion compared to vehicle treated cells. Data is the average from 4 donors.

For data set [4], the system named is IFNγ secretion in mixed lymphocyte reaction. The data set is described as follows: Inhibition of IFNγ secretion in a mixed lymphocyte reaction assay. Type of data set: cell-based, human. On the procedure: The mixed lymphocyte reaction assay is an in-vitro assay that mimics transplant rejection. T cells from one donor are cultured with allogeneic dendritic cells from another donor. This reaction induces a cellular immune response such as IFNγ secretion. CD14+ monocytes were isolated from human whole blood (Stanford blood center) of donor A using a ficoll gradient and magnetic seperation (CD14 microbeads, Miltenyi). […] Cells were harvested, washed with media, re-suspended to 400,000 cells/ml in media and plated at 10,000 cells/well/25 μl. CD4+ T cells were freshly isolated from human whole blood (Stanford blood center) of donor B using a ficoll gradient and magnetic separation (CD4+ T cell isolation kit, Miltenyi). T cells were re-susepended to 4,000,000 cells/ml in RPMI (Life Technologies) supplemented with 10% Fetal Bovine Serum (FBS, Life Technologies), 2 mM Glutamax (Life Technologies), 25 mM HEPES (Life Technologies) and 1× Pen/Strep (Life Technologies). CD4+ T cells were mixed with the dendritic cells at 100,000 cells/well/25 μl. Cells were treated with test compounds (50 μl at 20 μM, 2 μM and/or 0.2 μM) to a final concentration of 10 μM, 1 μM and/or 0.1 μM. Compounds were diluted in dimethyl sulfoxide (DMSO, Sigma) to a final concentration of 0.1%. DMSO at 0.1% was used as a vehicle control. Cells were maintained for 5 days in a 37° C., 5% CO2 humidified incubator. On day 5, supernatants were collected and measured for interferon gamma (INFγ) using enzyme linked immunosorbent assay (ELISA). Percent inhibition was determined by compound inhibitory potency against IFNγ secretion compared to vehicle treated cells. Data is the average from 4 donors.

Data set [5] has as its system IL-27 induced CXCL10 secretion. The data set is described as follows: Inhibition of IL-27 induced CXCL10 in human 3D airway cultures. Type of data set: cell-based. As to conditions: 192 h, 8 days, 4 donors. On the procedure: as §1
Data set [6] has as its system IL-27 induced CXCL9 secretion. Briefly: Inhibition of IL-27 induced CXCL9 in human 3D airway cultures. Type of data set: cell-based. Particulars: 192 h, 8 days, 4 donors. As for the experimental part: as §1

For orientation: inhibition means the percentage by which the read-out fell short of the control. A higher inhibition goes with strong suppression. On to `CCc1cc(O)ccc1-c1ccc2c(-c3nc4c([nH]3)CN(C(C)C)[C@H](C(=O)N3CC(N(C)C)C3)C4)n[nH]c2c1` [Compound 1, (S)-(3-(dimethylamino)azetidin-1-yl)(2-(6-(2-ethyl-4-hydroxyphenyl)-1H-indazol-3-yl)-5-isopropyl-4,5,6,7-tetrahydro-3H-imidazo[4,5-c]pyridin-6-yl)methanone], for which the inhibition at 0.1 µM in data set [1] (0.1 μM) amounted to 10%; in data set [3] (0.1 μM), 18%; in data set [4] (Homo sapiens, Lymphocyte, 120 h, 0.1 μM, 5 days, 4 donors) it was 43%; in data set [5] (0.1 μM), 25%; in data set [6] (0.1 μM), 52%. The inhibition at 1 µM in data set [1] (1 μM) was found to be 70%; in data set [3] (1 μM), 76%; in data set [4] (Homo sapiens, Lymphocyte, 120 h, printed "at μM" (middle concentration, 1 μM in the method), 5 days, 4 donors), 76%; in data set [5] (1 μM) it was 98%; in data set [6] (1 μM) it was 97%. The inhibition at 10 µM in data set [1] (10 μM) amounted to 91%; in data set [3] (10 μM), 100%; in data set [4] (Homo sapiens, Lymphocyte, 120 h, 10 μM, 5 days, 4 donors), 99%; in data set [5] (10 μM), 100%; in data set [6] (10 μM), 100%. Also, in data set [2], the “exposure in lung versus plasma (in words)” value is “significantly more exposure in the lung than exposure in plasma”. For the same molecule, the “inhibition of IFNγ secretion (in words)” value in data set [4] (mixed lymphocyte reaction) was “effectively inhibit IFNγ secretion”.

The values are drawn from patent US10947229B2, “Dimethyl amino azetidine amides as JAK inhibitors” (THERAVANCE BIOPHARMA R&D IP, LLC, priority 2018, dated 2021).
